Our source for the Kd values is patent US10647713B2 (Nimbus Lakshmi, Inc., priority 2016, dated 2020).

As usually defined, the Kd is the concentration at which binding is half-saturated. A low value points to tighter binding.

Sequence of human TYK2 (JH2domain-pseudokinase) (P29597 556-888): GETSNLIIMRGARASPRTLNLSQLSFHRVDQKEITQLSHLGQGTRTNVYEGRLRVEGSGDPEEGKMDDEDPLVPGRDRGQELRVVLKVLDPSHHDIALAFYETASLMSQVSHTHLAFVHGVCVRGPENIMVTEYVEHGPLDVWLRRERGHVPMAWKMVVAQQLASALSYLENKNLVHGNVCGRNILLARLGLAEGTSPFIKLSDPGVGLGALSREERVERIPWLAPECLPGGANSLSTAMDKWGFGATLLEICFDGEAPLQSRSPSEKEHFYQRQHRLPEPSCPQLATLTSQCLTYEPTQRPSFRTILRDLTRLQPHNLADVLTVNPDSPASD

This assay concerns the target human TYK2 (JH2domain-pseudokinase) (Homo sapiens (Human), UniProt P29597). Description: TYK2 JH2 Domain Binding Assay (KINOMEscan, DiscoveRx). As to conditions: 11-point dilution, duplicate. The method in brief: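 TYK2 JH2 (G556–D888)–NFkB DBD fusion, DNA-tagged, from HEK293 extracts (<0.1 nM) competed against immobilised biotinylated ligand for 1 h at room temperature, 0.9% DMSO. Bead-retained kinase quantified by qPCR; Kd from 11-point 3-fold series (top 30,000 nM, duplicate), Hill fit with slope −1.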
As for `Cc1cn(C)c(-c2ccc(Nc3cc(NC(=O)C4CC4)nc4[nH]c(C)nc34)c(N(C)S(C)(=O)=O)c2)n1` [I-176, N-(7-((4-(1,4-dimethyl-1H-imidazol-2-yl)-2-(N-methylmethyl-sulfonamido)phenyl)amino)-2-methyl-3H-imidazo[4,5-b]pyridin-5-yl)cyclopropane-carboxamide], the Kd fell in the range of 0.5 to 1 nM. `Cc1nc2c(Nc3ccccc3S(C)(=O)=O)cc(NC(=O)C3CC3)nc2[nH]1` [I-177, N-(2-methyl-7-((2-(methylsulfonyl)phenyl)amino)-3H-imidazo[4,5-b]pyridin-5-yl)cyclopropanecarboxamide] returned a Kd of 0.1 to 0.5 nM. Under `CN(c1cc(C(F)F)ccc1Nc1cc(Nc2cccc(C#N)n2)nc2[nH]c(C(F)F)nc12)S(C)(=O)=O` [I-178, N-(2-((5-((6-cyanopyridin-2-yl)amino)-2-(difluoromethyl)-3H-imidazo[4,5-b]pyridin-7-yl)amino)-5-(difluoromethyl)phenyl)-N-methylmethanesulfonamide] stands 0.1 to 0.5 nM; under `CN(c1ccccc1Nc1cc(Nc2cccc(C#N)n2)nc2[nH]c(C(F)F)nc12)S(=O)(=O)C1CC1` [I-179], 0.1 to 0.5 nM.

In the case of `Cc1nc2c(Nc3ccccc3N(C)S(=O)(=O)C3CC3)cc(Nc3cccc(C#N)n3)nc2[nH]1` [I-180, N-(2-((5-((6-cyanopyridin-2-yl)amino)-2-methyl-3H-imidazo[4,5-b]pyridin-7-yl)amino)phenyl)-N-methylcyclopropanesulfonamide], the Kd was in the range of 0.1 to 0.5 nM. The figure for `CCS(=O)(=O)N(C)c1ccccc1Nc1cc(Nc2cccc(C#N)n2)nc2[nH]c(C)nc12` [I-181, N-(2-((5-((6-cyanopyridin-2-yl)amino)-2-methyl-3H-imidazo[4,5-b]pyridin-7-yl)amino)phenyl)-N-methylethanesulfonamide] is 0.1 to 0.5 nM. Under `CN(c1cc(C2CCOCC2)ccc1Nc1cc(NC(=O)C2CC2)nc2[nH]c(C(F)F)nc12)S(C)(=O)=O` [I-182, N-(2-(difluoromethyl)-7-((2-(N-methylmethylsulfonamido)-4-(tetrahydro-2H-pyran-4-yl)phenyl)amino)-3H-imidazo[4,5-b]pyridin-5-yl)cyclopropanecarboxamide] stands 0.1 to 0.5 nM; under `CN(c1cc(C2CC2)ccc1Nc1cc(NC(=O)C2CC2)nc2[nH]c(C(F)F)nc12)S(C)(=O)=O` [I-183, N-(7-((4-cyclopropyl-2-(N-methylmethylsulfonamido)phenyl)amino)-2-(difluoromethyl)-3H-imidazo[4,5-b]pyridin-5-yl)cyclopropanecarboxamide], 0.1 to 0.5 nM; under `Cc1nc2c(Nc3ccc(C4CC4)cc3N(C)S(C)(=O)=O)cc(NC(=O)C3CC3)nc2[nH]1` [I-184, N-(7-((4-cyclopropyl-2-(N-methylmethylsulfonamido)phenyl)amino)-2-methyl-3H-imidazo[4,5-b]pyridin-5-yl)cyclopropanecarboxamidee], 0.1 to 0.5 nM. `Cc1ccc(Nc2cc(Nc3ccc(Cl)cc3S(C)(=O)=O)c3nc(C(F)F)[nH]c3n2)nn1` [I-185, N7-(4-chloro-2-(methylsulfonyl)phenyl)-2-(difluoromethyl)-N5-(6-methylpyridazin-3-yl)-3H-imidazo[4,5-b]pyridine-5,7-diamine] returned a Kd of 0.1 to 0.5 nM.

Compound `Cc1nc2c(Nc3ccc(Cl)cc3S(C)(=O)=O)cc(Nc3cccc(C#N)n3)nc2[nH]1` [I-186, 6-((7-((4-chloro-2-(methylsulfonyl)phenyl)amino)-2-methyl-3H-imidazo[4,5-b]pyridin-5-yl)amino)picolinonitrile] gave a dissociation constant (Kd) of 0.1 to 0.5 nM.

`Cc1cc(-c2ccc(Nc3cc(NC(=O)C4CC4)nc4[nH]c(C(F)F)nc34)c(N(C)S(C)(=O)=O)c2)nn1C` [I-187, N-(2-(difluoromethyl)-7-((4-(1,5-dimethyl-1H-pyrazol-3-yl)-2-(N-methylmethylsulfonamido)phenyl)amino)-3H-imidazo[4,5-b]pyridin-5-yl)cyclopropanecarboxamide] gave a Kd of 0.1 to 0.5 nM.

Compound `Cc1nc2c(Nc3ccc(C4CC4)cc3S(C)(=O)=O)cc(NC(=O)C3CC3)nc2[nH]1` [I-188] displayed a Kd of 0.1 to 0.5 nM. `Cc1ccc(Nc2cc(Nc3ccc(Cl)cc3S(C)(=O)=O)c3nc(C)[nH]c3n2)nn1` [I-189, N7-(4-chloro-2-(methylsulfonyl)phenyl)-2-methyl-N5-(6-methylpyridazin-3-yl)-3H-imidazo[4,5-b]pyridine-5,7-diamine] gave a Kd of 0.1 to 0.5 nM.

Compound `CCS(=O)(=O)N(C)c1ccccc1Nc1cc(Nc2cccc(C#N)n2)nc2[nH]c(C(F)F)nc12` [I-190, N-(2-((5-((6-cyanopyridin-2-yl)amino)-2-(difluoromethyl)-3H-imidazo[4,5-b]pyridin-7-yl)amino)phenyl)-N-methylethanesulfonamide] returned an equilibrium dissociation constant (Kd) above 10 nM. In turn, `CS(=O)(=O)c1cc(Cl)ccc1Nc1cc(Nc2cccc(C#N)n2)nc2[nH]c(C(F)F)nc12` [I-191, 6-((7-((4-chloro-2-(methylsulfonyl)phenyl)amino)-2-(difluoromethyl)-3H-imidazo[4,5-b]pyridin-5-yl)amino)picolinonitrile] yielded a Kd of 0.5 to 1 nM. As for `Cc1nc2c(Nc3ccc(Cl)cc3S(C)(=O)=O)cc(NC(=O)[C@H]3C[C@H]3F)nc2[nH]1` [I-192, (1R,2R)—N-(7-((4-chloro-2-(methylsulfonyl)phenyl)amino)-2-methyl-3H-imidazo[4,5-b]pyridin-5-yl)-2-fluorocyclopropane-1-carboxamide], the dissociation constant (Kd) lay in the range of 1 to 10 nM.

The compound `Cc1nc2c(Nc3ccc(-c4cc(C)n(C)n4)cc3N(C)S(C)(=O)=O)cc(NC(=O)C3CC3)nc2[nH]1` [I-193, N-(7-((4-(1,5-dimethyl-1H-pyrazol-3-yl)-2-(N-methylmethylsulfonamido)phenyl)amino)-2-methyl-3H-imidazo[4,5-b]pyridin-5-yl)cyclopropanecarboxamide] displayed a dissociation constant Kd above 10 nM. The figure for `Cc1nc2c(Nc3ccc(-c4cn(C)nc4C)cc3N(C)S(C)(=O)=O)cc(NC(=O)C3CC3)nc2[nH]1` [I-194, N-(7-((4-(1,3-dimethyl-1H-pyrazol-4-yl)-2-(N-methylmethylsulfonamido)phenyl)amino)-2-methyl-3H-imidazo[4,5-b]pyridin-5-yl)cyclopropanecarboxamide] is above 10 nM; for `Cc1nc2c(Nc3ccc(C(F)F)cc3N(C)S(C)(=O)=O)cc(Nc3cccc(C#N)n3)nc2[nH]1` [I-195, N-(2-((5-((6-cyanopyridin-2-yl)amino)-2-methyl-3H-imidazo[4,5-b]pyridin-7-yl)amino)-5-(difluoromethyl)phenyl)-N-methylmethanesulfonamide] it is 0.1 to 0.5 nM; for `Cc1nc2c(Nc3ccc(C4CCOCC4)cc3N(C)S(C)(=O)=O)cc(NC(=O)C3CC3)nc2[nH]1` [I-196, N-(2-methyl-7-((2-(N-methylmethylsulfonamido)-4-(tetrahydro-2H-pyran-4-yl)phenyl)amino)-3H-imidazo[4,5-b]pyridin-5-yl)cyclopropanecarboxamide] it is 0.5 to 1 nM.

As for `Cc1nn(C)cc1-c1ccc(Nc2cc(NC(=O)C3CC3)nc3[nH]c(C(F)F)nc23)c(N(C)S(C)(=O)=O)c1` [I-197, N-(2-(difluoromethyl)-7-((4-(1,3-dimethyl-1H-pyrazol-4-yl)-2-(N-methylmethylsulfonamido)phenyl)amino)-3H-imidazo[4,5-b]pyridin-5-yl)cyclopropanecarboxamide], the Kd lay within 0.1 to 0.5 nM.
